The target of one data set is MNK1a (Homo sapiens, UniProt Q9BUB5). The experiment in a line: ELONA binding of biotin-labeled aptamer. As for the experimental part: (§1) FIGS. 5A-5C. Characterization of the interaction of aptamer apMNKQ2 with MNK1 by means of ELONA. (A) ELONAs in which GST-MNKs previously adsorbed in 96-well plates at 0.2 μg/well (3 pmol/well) with apMNKQ2-Bio at 20 nM were incubated (FIG. 5A). The bars represent the mean±SEM of at least 3 independent experiments (*p<0.05, **p<0.01, and ***p<0.001 with respect to the blank and c p<0.05, b p<0.01, and a p<0.001 MNK1b with respect to MNK1a). ELONAs in which concentrations of 0 to 500 nM of apMNKQ2 were incubated (FIGS. 5A and 5C).
Chain of MNK1a (Q9BUB5 1-424 isoform Q9BUB5-2): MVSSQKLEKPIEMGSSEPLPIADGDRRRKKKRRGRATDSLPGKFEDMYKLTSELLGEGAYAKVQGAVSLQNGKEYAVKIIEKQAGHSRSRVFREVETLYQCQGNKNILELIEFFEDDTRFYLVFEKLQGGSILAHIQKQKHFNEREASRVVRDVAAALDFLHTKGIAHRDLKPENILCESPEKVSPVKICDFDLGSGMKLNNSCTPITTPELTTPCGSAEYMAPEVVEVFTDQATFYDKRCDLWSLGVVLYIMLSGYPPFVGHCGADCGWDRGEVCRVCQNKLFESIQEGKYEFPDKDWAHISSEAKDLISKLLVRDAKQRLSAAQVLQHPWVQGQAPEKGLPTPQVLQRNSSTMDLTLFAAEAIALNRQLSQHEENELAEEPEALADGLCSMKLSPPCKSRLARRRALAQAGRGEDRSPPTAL
(§2) To determine the binding of the aptamers to MNK1a or MNK1b, 200 ng of protein/well diluted in a coating solution (KPL, USA) in a final volume of 100 μL/well were added to a Maxisorp Nunc 96-well ELISA plate (ThermoFisher Scientific, USA). The plate was incubated overnight at 4° C. under stirring. Aptamers were then added at the corresponding concentration according to the assay, in a final volume of 100 μL/well of BSA-free aptamer buffer for 1 hour at 37° C. under stirring. All the aptamers used were labeled with biotin and had been previously denatured at 90° C. for 10 minutes and then kept at 4° C. for 10 minutes in the BSA-free aptamer buffer. To detect the binding of the aptamer to the protein, 100 μL/well of streptavidin-peroxidase (GE Healthcare, United Kingdom) diluted 1/1000 in the aptamer buffer at 37° C. for 1 hour under stirring were added. To develop the plate, 100 μL/well of ABTS solution (Roche, Switzerland) were added, and it was incubated in darkness at room temperature, with measurements being taken every 10 minutes at a wavelength of 405 nm in an Infinite F200 spectrophotometer (TECAN, Switzerland).

The next data set deals with MNK1aΔ77 (Homo sapiens, UniProt Q9BUB5). The experiment in a line: ELONA binding of biotin-labeled aptamer. The note with it: apMNKQ2-Bio at 20 nM, GST-MNK1aΔ77 0.2 μg/well. The protocol:
as §1, §2

For a further data set, the target named is MNK1b (Homo sapiens, UniProt Q9BUB5). The experiment in a line: ELONA binding of biotin-labeled aptamer. As for the experimental part:
as §1, §2

For another data set, the target named is MNK1ΔCt (Homo sapiens, UniProt Q9BUB5). Description: ELONA binding of biotin-labeled aptamer. The note with it: apMNKQ2-Bio at 20 nM, GST-MNK1ΔCt 0.2 μg/well. As for the experimental part:
as §1, §2

In a further data set the test system is MDA-MB-231 cells. The experiment in a line: Cell viability by trypan blue exclusion. The class given is cell-based, human. The note with it: MDA-MB-231, 400 nM, 24 hours after transfection, vs control aptamer AT. As for the experimental part: (§3) FIG. 9. Cell viability analysis by trypan blue exclusion. MCF7, MDA-MB-231, and MDA-MB-468 cells from different experiments were collected 24 hours after transfection, diluted 1:10 in trypan blue, and counted in a TC20 counter (BioRad, USA). The boxes represent the mean±the maximum and minimum of 12-14 independent experiments (**p<0.01, and ***p<0.001 with respect to the control aptamer AT). Trypan blue exclusion. Cells (live and dead) were collected in their corresponding medium, trypan blue (Sigma-Aldrich, USA) was added, and the cells were counted using the TC20 counter (BioRad, USA). Living cells are those which exclude the dye. The results were expressed as the number of living cells/mL. The cell lines were then transfected with the previously established concentrations and the number of living cells was determined 24 hours after transfection with […]2 or with the control aptamer AT by means of trypan blue exclusion.

In the next data set the test system is MDA-MB-468 cells. The experiment in a line: Cell viability by trypan blue exclusion. The class given is cell-based, human. To be noted: MDA-MB-468, 50 nM, 24 hours after transfection, vs control aptamer AT. The protocol: as §3
The subject of data set [1] is orthotopic xenograft of 4T1 cells. Description: In vivo efficacy in metastatic orthotopic 4T1 mouse model. Details: species or system BALBc mice. To be noted: 3.6 mg/kg intravenously three times a week. The protocol: FIG. 21A-21E. In vivo efficacy of apMNKQ2 in a mouse metastatic model with an orthotopic xenograft of 4T1 cells. (A) Effect of apMNKQ2 aptamer on the proliferation of 4T1 cells (mouse breast tumor line). 4T1 cells were seeded in p96 at a density of 1.5×10^3 cells/well. […] The graph (FIG. 21A) represents the means±SEM of 3 independent experiments. (B) Effect of apMNKQ2 aptamer on migration and invasion of 4T1 cells. Cells were seeded in p6 at a density of 2×10^5 cells/well and transfected with 500 nM apMNKQ2 at 24 hours. At 6 hours they were deprived of serum, and after 24 hours they were collected and re-seeded (4×10^4 cells/well) in a transwell […]. At 24 hours (migration) or 48 h (invasion), the transwell membranes were stained with Hoechst and the cells that had passed through the fluorescence microscopy were quantified. Values (FIG. 21B) represent the mean±SEM of 2-3 independent experiments. In vivo efficacy of apMNKQ2 in a mouse metastatic model with an orthotopic xenograft of 4T1 cells. (C) Evolution of mouse weight on the days of treatment with apMNKQ2 (FIG. 21C). (D) Relative tumor volume (RTV) throughout the days of treatment (FIG. 21D). (E) Number of lung metastases (FIG. 21E). The number of metastases is analyzed by the reverse staining method (with Chinese ink) and the metastases grouped according to their size in four groups (0.5, 1, 2 and >2). The stacked bars correspond to each group and represent the mean±SEM of 8-9 animals (*p<0.05 with respect to the control group).
The anti-tumour activity and the effect on and spontaneous metastasis of aptamers in BALBc mice bearing ortothopically […] 4T1 breast tumours. […] As monitoring parameters, the tumor volume, assuming they are ellipsoids, and the weight of the animals were measured. […]
To study the ability of apMNKQ2 to reduce metastasis in vivo, an orthotopic xenograft model with a murine tumor line of triple negative breast cancer, 4T1, was used. […] First, the effect of apMNKQ2 on 4T1 cells in vitro was analyzed. […]

Chain of MNK1b (Q9BUB5 1-347 isoform Q9BUB5-3): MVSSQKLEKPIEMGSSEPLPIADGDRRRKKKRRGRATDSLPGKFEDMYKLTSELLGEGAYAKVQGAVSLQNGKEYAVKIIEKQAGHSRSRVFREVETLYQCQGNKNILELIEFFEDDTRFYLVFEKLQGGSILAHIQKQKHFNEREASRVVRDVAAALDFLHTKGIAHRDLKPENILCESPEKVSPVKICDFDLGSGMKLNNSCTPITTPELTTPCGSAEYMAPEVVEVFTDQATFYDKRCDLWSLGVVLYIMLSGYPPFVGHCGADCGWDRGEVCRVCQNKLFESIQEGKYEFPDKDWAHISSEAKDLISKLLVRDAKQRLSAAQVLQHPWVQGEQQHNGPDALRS
Chain of MNK1ΔCt (Q9BUB5 1-335 isoform Q9BUB5-2 limits assumed): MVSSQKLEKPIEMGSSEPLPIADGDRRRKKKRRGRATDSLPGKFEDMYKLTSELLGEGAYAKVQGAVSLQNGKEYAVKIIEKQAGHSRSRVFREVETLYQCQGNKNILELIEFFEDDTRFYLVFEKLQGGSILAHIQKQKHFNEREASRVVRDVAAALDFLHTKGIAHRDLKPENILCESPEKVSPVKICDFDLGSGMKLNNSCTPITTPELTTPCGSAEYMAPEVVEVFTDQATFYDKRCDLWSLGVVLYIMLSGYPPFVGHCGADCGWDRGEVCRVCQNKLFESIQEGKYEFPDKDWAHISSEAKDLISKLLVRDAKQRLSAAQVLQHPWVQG
Chain of MNK1aΔ77 (Q9BUB5 1-347 isoform Q9BUB5-2 limits assumed): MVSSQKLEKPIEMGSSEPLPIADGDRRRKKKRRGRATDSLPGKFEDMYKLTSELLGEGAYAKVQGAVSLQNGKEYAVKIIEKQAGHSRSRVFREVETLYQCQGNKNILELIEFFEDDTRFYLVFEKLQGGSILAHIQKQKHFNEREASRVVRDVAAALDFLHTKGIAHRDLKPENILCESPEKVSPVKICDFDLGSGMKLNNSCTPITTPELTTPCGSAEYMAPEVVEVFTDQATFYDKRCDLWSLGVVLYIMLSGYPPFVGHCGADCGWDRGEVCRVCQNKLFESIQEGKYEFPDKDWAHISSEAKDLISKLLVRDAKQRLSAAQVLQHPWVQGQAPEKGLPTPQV

In general, Kd refers to the constant that tells how readily two partners part at equilibrium. Turning to “5′TGGGGTGGGCGGGCGGGGGTGGGGGTGGT-3′ (DNA, backbone and methylation of C not given here; further chemistry not fully specified) [apMNKQ2]”, the Kd worked out at 66.1 ± 20.2 nM with MNK1a (ELONA, biotin-labeled aptamer 0 to 500 nM, GST-MNK1a) and 15.5 ± 2.36 nM with MNK1b (ELONA, biotin-labeled aptamer 0 to 500 nM, GST-MNK1b). Also, the “binding (ELONA)” value in the data set with MNK1a (apMNKQ2-Bio at 20 nM, GST-MNK1a 0.2 μg/well) was “binds significantly”; with MNK1aΔ77, “not significant”; with MNK1b (apMNKQ2-Bio at 20 nM, GST-MNK1b 0.2 μg/well), “binds significantly”; with MNK1ΔCt it was “not significant”. In the data set with MNK1b (from ELONA KD values), the “affinity for MNK1b relative to MNK1a” value was “four-fold higher”. Besides, the “total number of living cells (trypan blue exclusion)” value in the data set on MDA-MB-231 cells is “very slight drop”; in the data set with MDA-MB-468 cells, “significant drop”. The “size of the tumors (relative tumor volume)” value in data set [1] (18 days) is “does not produce changes”. Also, the “weight of the mice” value in data set [1] (18 days) is “does not produce changes”. For the same substance, in data set [1] (statistically significant for metastasis of 2 mm), the “number of lung metastasis” value is recorded as “decreased”.

The values are drawn from US12492403B2, “Aptamers and the use thereof in the treatment of cancer” (FUNDACIÓN PARA LA INVESTIGACIÓN BIOMÉDICA DEL HOSPITAL …, priority 2018, dated 2025).
